According to the supplement of paper PMC9013687:
± gives the standard deviation of the averaged measurements.

Tests used:
Danio rerio embryo [1] = test: EC10 Pericard size_Increase; higher = less potent; conditions: exposure time: 4 dpf
Experimental: (§1)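 Zebrafish embryos (UFZ-OBI strain) were exposed from 2 hpf for 48 h (2 dpf) or 96 h (4 dpf) at 28 °C; spontaneous tail coiling was scored at 25 hpf. Morphological features from automated image analysis (FishInspector), heart rate and locomotor response were fitted with drc models. Quantal endpoints were dichotomised at 2.5 SD from controls and fitted with a log-logistic model; heart rate, pigmentation and STC were normalised to the replicate control mean. Betamethasone was tested as betamethasone dipropionate, diflorasone as diflorasone diacetate.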

Danio rerio embryo [2] = test: spontaneous tail coiling frequency (coils/min/embryo); higher = more spontaneous movement; conditions: 25 hpf
Experimental: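 Spontaneous tail coilings of zebrafish embryos exposed from 2 hpf were recorded at 24-25 hpf in 1-min videos and detected by a KNIME workflow from grey-value variance. Betamethasone was tested as the dipropionate, diflorasone as the diacetate.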

Danio rerio embryo [3] = test system: Danio rerio embryo
Experimental: as §1

Danio rerio embryo [4] = conditions: exposure time: 4 dpf
Experimental: as §1

Danio rerio embryo [5] = test: EC10 Bladder size_Decrease; higher = less potent; conditions: exposure time: 4 dpf
Experimental: as §1

Danio rerio embryo [6] = test: EC20 Otolith-eye distance_Decrease; higher = less potent; conditions: exposure time: 4 dpf
Experimental: as §1

Danio rerio embryo [7] = test: EC50 Bladder size_Decrease; conditions: exposure time: 4 dpf
Experimental: as §1

Danio rerio embryo [8] = test: EC10 Otolith-eye distance_Decrease; higher = less potent; conditions: exposure time: 4 dpf
Experimental: as §1

Danio rerio embryo [9] = test: EC20 Pericard size_Increase; higher = less potent; conditions: exposure time: 4 dpf
Experimental: as §1

Danio rerio embryo [10] = test: EC20 Bladder size_Decrease; higher = less potent; conditions: exposure time: 4 dpf
Experimental: as §1

Danio rerio embryo [11] = test: EC20 LMR dark; higher = less potent; conditions: exposure time: 4 dpf
Experimental: as §1

Danio rerio embryo [12] = test: EC50 Body length_Decrease
Experimental: as §1

Danio rerio embryo [13] = test: EC20 Any effect; higher = less potent
Experimental: as §1

Danio rerio embryo [14] = test: EC50 Eye-jaw distance_Decrease; conditions: exposure time: 4 dpf
Experimental: as §1

Danio rerio embryo [15] = test: EC10 Eye-jaw distance_Decrease; higher = less potent; conditions: exposure time: 4 dpf
Experimental: as §1

Danio rerio embryo [16] = test: EC10 Head trunk angle_Decrease; higher = less potent; conditions: exposure time: 2 dpf
Experimental: as §1

Danio rerio embryo [17] = test: EC10 Curvature_Increase; higher = less potent
Experimental: as §1

Danio rerio embryo [18] = test: EC10 Yolk sac size_Increase; higher = less potent; conditions: exposure time: 4 dpf
Experimental: as §1

Danio rerio embryo [19] = test: EC10 Body length_Decrease; higher = less potent
Experimental: as §1

Danio rerio embryo [20] = test: EC20 Eye-jaw distance_Decrease; higher = less potent; conditions: exposure time: 4 dpf
Experimental: as §1

Danio rerio embryo [21] = test: EC50 Pericard size_Increase; conditions: exposure time: 4 dpf
Experimental: as §1

Danio rerio embryo [22] = test: EC50 Curvature_Increase
Experimental: as §1

Danio rerio embryo [23] = test: EC20 Yolk sac size_Increase; higher = less potent; conditions: exposure time: 4 dpf
Experimental: as §1

Danio rerio embryo [24] = test: EC50 Otolith-eye distance_Decrease; conditions: exposure time: 4 dpf
Experimental: as §1

Danio rerio embryo [25] = test: EC20 Curvature_Increase; higher = less potent
Experimental: as §1

Danio rerio embryo [26] = test: EC10 Any effect; higher = less potent
Experimental: as §1

Danio rerio embryo [27] = test: EC50 Yolk sac size_Increase; conditions: exposure time: 4 dpf
Experimental: as §1

Danio rerio embryo [28] = test: EC20 Body length_Decrease; higher = less potent
Experimental: as §1

Danio rerio embryo [29] = test: EC10 LMR dark; higher = less potent; conditions: exposure time: 4 dpf
Experimental: as §1

CCOC(=O)N1CCC(=C2c3ccc(Cl)cc3CCc3cccnc32)CC1 [Loratadine]
Conditions	EC10 Bladder size Decrease [µM]	EC10 Eye-jaw distance Decrease [µM]	EC10 Head trunk angle Decrease [µM]	EC10 LMR dark [µM]	EC10 Otolith-eye distance Decrease [µM]	EC10 Pericard size Increase [µM]	EC10 Yolk sac size Increase [µM]	EC20 Bladder size Decrease [µM]	EC20 Eye-jaw distance Decrease [µM]	EC20 LMR dark [µM]	EC20 Otolith-eye distance Decrease [µM]	EC20 Pericard size Increase [µM]	EC20 Yolk sac size Increase [µM]	EC50 Bladder size Decrease [µM]	EC50 Eye-jaw distance Decrease [µM]	EC50 LMR dark [µM]	EC50 Otolith-eye distance Decrease [µM]	EC50 Pericard size Increase [µM]	EC50 Yolk sac size Increase [µM]
Danio rerio embryo [1]	–	–	–	–	–	3.01	–	–	–	–	–	–	–	–	–	–	–	–	–
Danio rerio embryo [4]	–	–	–	–	–	–	–	–	–	–	–	–	–	–	–	0.399	–	–	–
Danio rerio embryo [5]	0.165	–	–	–	–	–	–	–	–	–	–	–	–	–	–	–	–	–	–
Danio rerio embryo [6]	–	–	–	–	–	–	–	–	–	–	4.62	–	–	–	–	–	–	–	–
Danio rerio embryo [7]	–	–	–	–	–	–	–	–	–	–	–	–	–	0.282	–	–	–	–	–
Danio rerio embryo [8]	–	–	–	–	4.17	–	–	–	–	–	–	–	–	–	–	–	–	–	–
Danio rerio embryo [9]	–	–	–	–	–	–	–	–	–	–	–	4.72	–	–	–	–	–	–	–
Danio rerio embryo [10]	–	–	–	–	–	–	–	0.201	–	–	–	–	–	–	–	–	–	–	–
Danio rerio embryo [11]	–	–	–	–	–	–	–	–	–	0.318	–	–	–	–	–	–	–	–	–
Danio rerio embryo [14]	–	–	–	–	–	–	–	–	–	–	–	–	–	–	6.86	–	–	–	–
Danio rerio embryo [15]	–	5.07	–	–	–	–	–	–	–	–	–	–	–	–	–	–	–	–	–
Danio rerio embryo [16]	–	–	4.17	–	–	–	–	–	–	–	–	–	–	–	–	–	–	–	–
Danio rerio embryo [18]	–	–	–	–	–	–	4.91	–	–	–	–	–	–	–	–	–	–	–	–
Danio rerio embryo [20]	–	–	–	–	–	–	–	–	5.67	–	–	–	–	–	–	–	–	–	–
Danio rerio embryo [21]	–	–	–	–	–	–	–	–	–	–	–	–	–	–	–	–	–	10.2	–
Danio rerio embryo [23]	–	–	–	–	–	–	–	–	–	–	–	–	6.74	–	–	–	–	–	–
Danio rerio embryo [24]	–	–	–	–	–	–	–	–	–	–	–	–	–	–	–	–	5.49	–	–
Danio rerio embryo [27]	–	–	–	–	–	–	–	–	–	–	–	–	–	–	–	–	–	–	11.6
Danio rerio embryo [29]	–	–	–	0.279	–	–	–	–	–	–	–	–	–	–	–	–	–	–	–

Conditions	EC10 Any effect [µM]	EC10 Body length Decrease [µM]	EC10 Curvature Increase [µM]	EC20 Any effect [µM]	EC20 Body length Decrease [µM]	EC20 Curvature Increase [µM]	EC50 Any effect [µM]	EC50 Body length Decrease [µM]	EC50 Curvature Increase [µM]	EC50 STC decrease [µM]	spontaneous tail coiling frequency
Danio rerio embryo [2], 0.155 µM	–	–	–	–	–	–	–	–	–	–	2.97
Danio rerio embryo [2], 0.31 µM	–	–	–	–	–	–	–	–	–	–	1.28
Danio rerio embryo [2], 0.61 µM	–	–	–	–	–	–	–	–	–	–	1.66
Danio rerio embryo [2], 1.22 µM	–	–	–	–	–	–	–	–	–	–	1.82 ± 0.75
Danio rerio embryo [2], 2.45 µM	–	–	–	–	–	–	–	–	–	–	2.58 ± 0.62
Danio rerio embryo [2], 4.9 µM	–	–	–	–	–	–	–	–	–	–	1.79 ± 0.028
Danio rerio embryo [2], 9.79 µM	–	–	–	–	–	–	–	–	–	–	0.505 ± 0.32
Danio rerio embryo [3], exposure time: 2 dpf	–	–	–	–	–	–	6.4	–	–	–	–
Danio rerio embryo [3], exposure time: 4 dpf	–	–	–	–	–	–	0.438	–	–	–	–
Danio rerio embryo [3], exposure time: 25 h	–	–	–	–	–	–	–	–	–	6.63	–
Danio rerio embryo [12], exposure time: 2 dpf	–	–	–	–	–	–	–	7.83	–	–	–
Danio rerio embryo [12], exposure time: 4 dpf	–	–	–	–	–	–	–	0.442	–	–	–
Danio rerio embryo [13], exposure time: 2 dpf	–	–	–	5.01	–	–	–	–	–	–	–
Danio rerio embryo [13], exposure time: 4 dpf	–	–	–	0.398	–	–	–	–	–	–	–
Danio rerio embryo [17], exposure time: 2 dpf	–	–	3.56	–	–	–	–	–	–	–	–
Danio rerio embryo [19], exposure time: 2 dpf	–	5.13	–	–	–	–	–	–	–	–	–
Danio rerio embryo [19], exposure time: 4 dpf	–	0.383	–	–	–	–	–	–	–	–	–
Danio rerio embryo [22], exposure time: 2 dpf	–	–	–	–	–	–	–	–	6.62	–	–
Danio rerio embryo [25], exposure time: 2 dpf	–	–	–	–	–	4.48	–	–	–	–	–
Danio rerio embryo [26], exposure time: 2 dpf	4.34	–	–	–	–	–	–	–	–	–	–
Danio rerio embryo [26], exposure time: 4 dpf	0.376	–	–	–	–	–	–	–	–	–	–
Danio rerio embryo [28], exposure time: 2 dpf	–	–	–	–	6	–	–	–	–	–	–
Danio rerio embryo [28], exposure time: 4 dpf	–	–	–	–	0.404	–	–	–	–	–	–

CN(Cc1cnc2nc(N)nc(N)c2n1)c1ccc(C(=O)N[C@@H](CCC(=O)O)C(=O)O)cc1 [Methotrexate]
Conditions	EC10 Bladder size Decrease [µM]	EC10 Eye-jaw distance Decrease [µM]	EC10 Head trunk angle Decrease [µM]	EC10 LMR dark [µM]	EC10 Otolith-eye distance Decrease [µM]	EC10 Pericard size Increase [µM]	EC10 Yolk sac size Increase [µM]	EC20 Bladder size Decrease [µM]	EC20 Eye-jaw distance Decrease [µM]	EC20 LMR dark [µM]	EC20 Otolith-eye distance Decrease [µM]	EC20 Pericard size Increase [µM]	EC20 Yolk sac size Increase [µM]	EC50 Bladder size Decrease [µM]	EC50 Eye-jaw distance Decrease [µM]	EC50 LMR dark [µM]	EC50 Otolith-eye distance Decrease [µM]	EC50 Pericard size Increase [µM]	EC50 Yolk sac size Increase [µM]
Danio rerio embryo [1]	–	–	–	–	–	129	–	–	–	–	–	–	–	–	–	–	–	–	–
Danio rerio embryo [4]	–	–	–	–	–	–	–	–	–	–	–	–	–	–	–	243	–	–	–
Danio rerio embryo [5]	95.7	–	–	–	–	–	–	–	–	–	–	–	–	–	–	–	–	–	–
Danio rerio embryo [6]	–	–	–	–	–	–	–	–	–	–	154	–	–	–	–	–	–	–	–
Danio rerio embryo [7]	–	–	–	–	–	–	–	–	–	–	–	–	–	108	–	–	–	–	–
Danio rerio embryo [8]	–	–	–	–	116	–	–	–	–	–	–	–	–	–	–	–	–	–	–
Danio rerio embryo [9]	–	–	–	–	–	–	–	–	–	–	–	193	–	–	–	–	–	–	–
Danio rerio embryo [10]	–	–	–	–	–	–	–	99.9	–	–	–	–	–	–	–	–	–	–	–
Danio rerio embryo [11]	–	–	–	–	–	–	–	–	–	206	–	–	–	–	–	–	–	–	–
Danio rerio embryo [14]	–	–	–	–	–	–	–	–	–	–	–	–	–	–	197	–	–	–	–
Danio rerio embryo [15]	–	122	–	–	–	–	–	–	–	–	–	–	–	–	–	–	–	–	–
Danio rerio embryo [16]	–	–	148	–	–	–	–	–	–	–	–	–	–	–	–	–	–	–	–
Danio rerio embryo [18]	–	–	–	–	–	–	20.2	–	–	–	–	–	–	–	–	–	–	–	–
Danio rerio embryo [20]	–	–	–	–	–	–	–	–	146	–	–	–	–	–	–	–	–	–	–
Danio rerio embryo [21]	–	–	–	–	–	–	–	–	–	–	–	–	–	–	–	–	–	385	–
Danio rerio embryo [23]	–	–	–	–	–	–	–	–	–	–	–	–	44.7	–	–	–	–	–	–
Danio rerio embryo [24]	–	–	–	–	–	–	–	–	–	–	–	–	–	–	–	–	248	–	–
Danio rerio embryo [27]	–	–	–	–	–	–	–	–	–	–	–	–	–	–	–	–	–	–	173
Danio rerio embryo [29]	–	–	–	186	–	–	–	–	–	–	–	–	–	–	–	–	–	–	–

Conditions	EC10 Any effect [µM]	EC10 Body length Decrease [µM]	EC10 Curvature Increase [µM]	EC20 Any effect [µM]	EC20 Body length Decrease [µM]	EC20 Curvature Increase [µM]	EC50 Any effect [µM]	EC50 Body length Decrease [µM]	EC50 Curvature Increase [µM]	EC50 LMR ligth decrease [µM]	spontaneous tail coiling frequency
Danio rerio embryo [2], 43.5 µM	–	–	–	–	–	–	–	–	–	–	3.02
Danio rerio embryo [2], 65.2 µM	–	–	–	–	–	–	–	–	–	–	3.58 ± 0.63
Danio rerio embryo [2], 97.8 µM	–	–	–	–	–	–	–	–	–	–	2.42 ± 0.82
Danio rerio embryo [2], 146.7 µM	–	–	–	–	–	–	–	–	–	–	1.83 ± 0.26
Danio rerio embryo [2], 220.1 µM	–	–	–	–	–	–	–	–	–	–	2.71 ± 0.25
Danio rerio embryo [2], 330.1 µM	–	–	–	–	–	–	–	–	–	–	3.53 ± 1.3
Danio rerio embryo [2], 440.1 µM	–	–	–	–	–	–	–	–	–	–	3.51
Danio rerio embryo [3], exposure time: 2 dpf	–	–	–	–	–	–	207	–	–	–	–
Danio rerio embryo [3], exposure time: 4 dpf	–	–	–	–	–	–	116	–	–	127	–
Danio rerio embryo [12], exposure time: 2 dpf	–	–	–	–	–	–	–	241	–	–	–
Danio rerio embryo [12], exposure time: 4 dpf	–	–	–	–	–	–	–	214	–	–	–
Danio rerio embryo [13], exposure time: 2 dpf	–	–	–	126	–	–	–	–	–	–	–
Danio rerio embryo [13], exposure time: 4 dpf	–	–	–	55.2	–	–	–	–	–	–	–
Danio rerio embryo [17], exposure time: 2 dpf	–	–	133	–	–	–	–	–	–	–	–
Danio rerio embryo [17], exposure time: 4 dpf	–	–	172	–	–	–	–	–	–	–	–
Danio rerio embryo [19], exposure time: 2 dpf	–	151	–	–	–	–	–	–	–	–	–
Danio rerio embryo [19], exposure time: 4 dpf	–	104	–	–	–	–	–	–	–	–	–
Danio rerio embryo [22], exposure time: 2 dpf	–	–	–	–	–	–	–	–	250	–	–
Danio rerio embryo [22], exposure time: 4 dpf	–	–	–	–	–	–	–	–	219	–	–
Danio rerio embryo [25], exposure time: 2 dpf	–	–	–	–	–	168	–	–	–	–	–
Danio rerio embryo [25], exposure time: 4 dpf	–	–	–	–	–	188	–	–	–	–	–
Danio rerio embryo [26], exposure time: 2 dpf	93.9	–	–	–	–	–	–	–	–	–	–
Danio rerio embryo [26], exposure time: 4 dpf	35.7	–	–	–	–	–	–	–	–	–	–
Danio rerio embryo [28], exposure time: 2 dpf	–	–	–	–	180	–	–	–	–	–	–
Danio rerio embryo [28], exposure time: 4 dpf	–	–	–	–	136	–	–	–	–	–	–
